By Km is commonly meant the substrate concentration at which the rate is half of its maximum.

Drawing on article PMC6935173, “Characterization of a vacuolar sucrose transporter, HbSUT5, from Hevea brasiliensis: involvement in latex production through regulation of intracellular sucrose transport in the bark and laticifers” (BMC Plant Biology, 2019), this text covers activity and Km for 2 molecules.

The target of series [1] is T1, HbSUT5 (Hevea brasiliensis, UniProt A0T058).
T1 construct: gene SUT5; ORF primers give start MAIPQ
T1 sequence (A0T058 1-498): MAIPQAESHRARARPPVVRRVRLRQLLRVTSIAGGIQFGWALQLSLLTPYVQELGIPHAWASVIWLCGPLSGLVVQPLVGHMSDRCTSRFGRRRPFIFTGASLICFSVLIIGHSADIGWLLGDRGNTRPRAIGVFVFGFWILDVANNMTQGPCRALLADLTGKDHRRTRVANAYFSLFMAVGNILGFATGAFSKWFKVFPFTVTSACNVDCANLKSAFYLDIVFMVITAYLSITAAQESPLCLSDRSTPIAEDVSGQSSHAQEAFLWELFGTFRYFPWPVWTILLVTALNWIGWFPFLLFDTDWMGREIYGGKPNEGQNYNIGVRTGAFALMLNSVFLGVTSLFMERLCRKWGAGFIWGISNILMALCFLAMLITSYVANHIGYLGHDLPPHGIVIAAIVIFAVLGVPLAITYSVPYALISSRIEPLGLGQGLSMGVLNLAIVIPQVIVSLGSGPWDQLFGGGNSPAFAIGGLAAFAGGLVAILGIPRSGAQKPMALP
Description: competition with […]-sucrose uptake in yeast SEY6210. The format is cell-based.

Substrate in series [2]: OC[C@H]1O[C@@](CO)(O[C@H]2O[C@H](CO)[C@@H](O)[C@H](O)[C@H]2O)[C@@H](O)[C@@H]1O
Description: cells, lysate or membranes. The note with it: pH 5.5, 0.5-8 mM sucrose, labelled compound, H+ symport, whole yeast cells. The format is cell-based, Hevea brasiliensis.

`OC[C@H]1O[C@H](O[C@H]2[C@H](O)[C@@H](O)C(O)O[C@@H]2CO)[C@H](O)[C@@H](O)[C@@H]1O` (some centres unmarked) [Maltose] returned an activity at 10000 µM in series [1] of 44 ± 3.4%.

B1: HbSUT5 (Hevea brasiliensis) (protein)
chain: MAIPQAESHRARARPPVVRRVRLRQLLRVTSIAGGIQFGWALQLSLLTPYVQELGIPHAWASVIWLCGPLSGLVVQPLVGHMSDRCTSRFGRRRPFIFTGASLICFSVLIIGHSADIGWLLGDRGNTRPRAIGVFVFGFWILDVANNMTQGPCRALLADLTGKDHRRTRVANAYFSLFMAVGNILGFATGAFSKWFKVFPFTVTSACNVDCANLKSAFYLDIVFMVITAYLSITAAQESPLCLSDRSTPIAEDVSGQSSHAQEAFLWELFGTFRYFPWPVWTILLVTALNWIGWFPFLLFDTDWMGREIYGGKPNEGQNYNIGVRTGAFALMLNSVFLGVTSLFMERLCRKWGAGFIWGISNILMALCFLAMLITSYVANHIGYLGHDLPPHGIVIAAIVIFAVLGVPLAITYSVPYALISSRIEPLGLGQGLSMGVLNLAIVIPQVIVSLGSGPWDQLFGGGNSPAFAIGGLAAFAGGLVAILGIPRSGAQKPMALP
notes: ORF primers give start MAIPQ
With B1, the Km in series [2] is 2030 µM.
